Key:
Type in all cases: in vivo
Lolium perenne [1] = test: Post-emergence herbicidal assay, 96 cell trays, glasshouse; settings: 168 h, second trial (Table 2), Lollium, assessed 7 days after treatment, read-out: % control of plant growth; for pest or weed control at 200 g/ha: 0.2 kg/ha; for pest or weed control at 1000 g/ha: 1 kg/ha; for pest or weed control at 5000 g/ha: 5 kg/ha
Description: (§1) The compounds were screened at three concentrations (0.2, 1 and 5 kg/ha) against 2 weed species (Stellaria media—Chickweed and Lolium perenne). The seeds were sown in the cells of 96 cell trays (4-6 seeds per cell). For the pre-emergence assay, 75 μL of a suspension of the test compound, at the above doses, was added on top of the soil 1 day after sowing. For the post-emergence assay, the seedlings were sprayed with 200 μL of a suspension of the test compound two weeks after sowing. The formulation used is 25% acetone and 75% water/0.01% Tween 20. Each treatment was replicated three times. The plants were kept in a glasshouse (uncontrolled conditions) and assessed 7 days after treatment. A small number of compounds were tested in a first trial. A larger number of compounds were tested in a second trial. The assessment was based on the % control of plant growth in each cell.

[2] = test system: Stellaria media—Chickweed; test: as above; settings: 168 h, second trial (Table 2), assessed 7 days after treatment, read-out: % control of plant growth; for pest or weed control at 200 g/ha: 0.2 kg/ha; for pest or weed control at 1000 g/ha: 1 kg/ha; for pest or weed control at 5000 g/ha: 5 kg/ha
Description: as §1

Lolium perenne [3] = test: Pre-emergence herbicidal assay, 96 cell trays, glasshouse; settings: 168 h, second trial (Table 2), Lollium, assessed 7 days after treatment, read-out: % control of plant growth; for pest or weed control at 200 g/ha: 0.2 kg/ha; for pest or weed control at 1000 g/ha: 1 kg/ha; for pest or weed control at 5000 g/ha: 5 kg/ha
Description: as §1

[4] = test system: Stellaria media—Chickweed; test: as above; settings: 168 h, second trial (Table 2), assessed 7 days after treatment, read-out: % control of plant growth; for pest or weed control at 200 g/ha: 0.2 kg/ha; for pest or weed control at 1000 g/ha: 1 kg/ha; for pest or weed control at 5000 g/ha: 5 kg/ha
Description: as §1

| Compound | pest or weed control at 200 g/ha (Lolium perenne [1]) [%] | pest or weed control at 1000 g/ha (Lolium perenne [1]) [%] | pest or weed control at 5000 g/ha (Lolium perenne [1]) [%] | pest or weed control at 200 g/ha [2] [%] | pest or weed control at 1000 g/ha [2] [%] | pest or weed control at 5000 g/ha [2] [%] | pest or weed control at 200 g/ha (Lolium perenne [3]) [%] | pest or weed control at 1000 g/ha (Lolium perenne [3]) [%] | pest or weed control at 5000 g/ha (Lolium perenne [3]) [%] | pest or weed control at 200 g/ha [4] [%] | pest or weed control at 1000 g/ha [4] [%] | pest or weed control at 5000 g/ha [4] [%] |
| --- | --- | --- | --- | --- | --- | --- | --- | --- | --- | --- | --- | --- |
| C#CCN1C(=O)C2(CC2)Oc2cc(F)c(N3C(=O)c4ccccc4C3=O)cc21 [Example 7] | < 20 | 20 to 80 | 20 to 80 | 80 to 100 | 80 to 100 | 80 to 100 | 20 to 80 | 80 to 100 | 80 to 100 | 80 to 100 | 80 to 100 | 80 to 100 |
| C#CCN1C(=O)C2(CC2)Oc2cc(F)c(N3C(=O)c4ccc(O)cc4C3=O)cc21 [Example 9] | < 20 | < 20 | 20 to 80 | < 20 | < 20 | 20 to 80 | < 20 | < 20 | 20 to 80 | < 20 | < 20 | 20 to 80 |
| C#CCN1C(=O)C2(CC2)Oc2cc(F)c(N3C(=O)c4ccc(OC)cc4C3=O)cc21 [Example 10] | < 20 | < 20 | < 20 | 20 to 80 | 80 to 100 | 80 to 100 | < 20 | < 20 | < 20 | 20 to 80 | 80 to 100 | 80 to 100 |
| C#CCN1C(=O)C2(CC2)Oc2cc(F)c(N3C(=O)C4CC4C3=O)cc21 (stereo not drawn) [Example 13] | < 20 | < 20 | < 20 | 80 to 100 | 80 to 100 | 80 to 100 | < 20 | < 20 | 20 to 80 | 20 to 80 | 80 to 100 | 80 to 100 |
| C#CCN1C(=O)C2(CC2)Oc2cc(F)c(N3C(=O)C=C(C(F)(F)F)C3=O)cc21 [Example 14] | < 20 | < 20 | < 20 | < 20 | < 20 | < 20 | < 20 | < 20 | < 20 | < 20 | < 20 | < 20 |
| COC(=O)C(C)N1C(=O)C2(CC2)Oc2cc(F)c(N3C(=O)c4ccc(F)cc4C3=O)cc21 (stereo not drawn) [Example 16] | 20 to 80 | 20 to 80 | 80 to 100 | 80 to 100 | 80 to 100 | 80 to 100 | < 20 | 20 to 80 | 20 to 80 | 80 to 100 | 80 to 100 | 80 to 100 |
| COC(=O)C(C)N1C(=O)C2(CC2)Oc2cc(F)c(N3C(=O)C=C(C(F)(F)F)C3=O)cc21 (stereo not drawn) [Example 17] | < 20 | < 20 | < 20 | < 20 | 20 to 80 | 20 to 80 | < 20 | 20 to 80 | 20 to 80 | 20 to 80 | 20 to 80 | 80 to 100 |
| CCOC(=O)C(C)N1C(=O)C2(CC2)Oc2cc(F)c(N3C(=O)C=C(C(F)(F)F)C3=O)cc21 (stereo not drawn) [Example 20] | < 20 | < 20 | < 20 | 20 to 80 | 80 to 100 | 80 to 100 | < 20 | < 20 | < 20 | < 20 | 20 to 80 | 20 to 80 |
| CCCN1C(=O)C2(CC2)Oc2cc(F)c(N3C(=O)c4ccc(F)cc4C3=O)cc21 [Example 22] | 20 to 80 | 20 to 80 | 80 to 100 | 80 to 100 | 80 to 100 | 80 to 100 | < 20 | 20 to 80 | 20 to 80 | 80 to 100 | 80 to 100 | 80 to 100 |
| C#CCN1C(=O)C2(CCC2)Oc2cc(F)c(N3C(=O)c4ccc(F)cc4C3=O)cc21 [Example 23] | < 20 | < 20 | < 20 | 80 to 100 | 80 to 100 | 80 to 100 | < 20 | < 20 | 20 to 80 | < 20 | 80 to 100 | 80 to 100 |
| C#CCN1C(=O)C2(CCC2)Oc2cc(F)c(N3C(=O)C=C(C(F)(F)F)C3=O)cc21 [Example 24] | < 20 | < 20 | < 20 | < 20 | < 20 | < 20 | < 20 | 20 to 80 | 20 to 80 | < 20 | 20 to 80 | 20 to 80 |
| C#CCN1C(=O)C2(CN(C(=O)OCc3ccccc3)C2)Oc2cc(F)c(N3C(=O)c4ccc(F)cc4C3=O)cc21 [Example 25] | < 20 | < 20 | < 20 | < 20 | < 20 | < 20 | < 20 | < 20 | < 20 | 20 to 80 | 20 to 80 | 20 to 80 |
| O=C1c2ccc(F)cc2C(=O)N1c1cc2c(cc1F)OC1(CC1)C(=O)N2CC#CI [Example 30, 5-Fluoro-2-(7-fluoro-4-(3-iodoprop-2-yn-1-yl)-3-oxo-3,4-dihydrospiro[benzo[b][1,4]oxazine-2,1′-cyclopropan]-6-yl)isoindoline-1,3-dione] | < 20 | < 20 | < 20 | 80 to 100 | 80 to 100 | 80 to 100 | 20 to 80 | 20 to 80 | 80 to 100 | 80 to 100 | 80 to 100 | 80 to 100 |
| C#CCN1C(=O)C2(CCC2)Oc2cc(F)c(-n3c(=O)cc(C(F)(F)F)[nH]c3=O)cc21 [Example 33, 3-(7-Fluoro-3-oxo-4-(prop-2-yn-1-yl)-3,4-dihydrospiro[benzo[b][1,4]oxazine-2,1′-cyclobutan]-6-yl)-6-(trifluoromethyl)pyrimidine-2,4(1H,3H)-dione] | < 20 | < 20 | < 20 | < 20 | < 20 | 20 to 80 | < 20 | < 20 | < 20 | < 20 | 20 to 80 | 20 to 80 |
| CC(C(=O)O)N1C(=O)C2(CC2)Oc2cc(F)c(N3C(=O)c4ccc(F)cc4C3=O)cc21 (stereo not drawn) [Example 35] | < 20 | 20 to 80 | 20 to 80 | 80 to 100 | 80 to 100 | 80 to 100 | < 20 | 20 to 80 | 20 to 80 | < 20 | 20 to 80 | 20 to 80 |
